# Measurements: patent US7790751B2, “Azinyl-3-sulfonylindazole derivatives as 5-hydroxytryptamine-6 ligands” (Wyeth LLC, priority 2005, dated 2010)
# Structures can show the parent of a compound that is named as a salt.
# Target: human cloned 5-HT6 receptors (Homo sapiens, UniProt P50406)
# Test: Evaluation of 5-HT6 binding affinity of test compounds ([3H]-LSD displacement)
# human cloned 5-HT6 receptors, sequence (P50406 whole entry): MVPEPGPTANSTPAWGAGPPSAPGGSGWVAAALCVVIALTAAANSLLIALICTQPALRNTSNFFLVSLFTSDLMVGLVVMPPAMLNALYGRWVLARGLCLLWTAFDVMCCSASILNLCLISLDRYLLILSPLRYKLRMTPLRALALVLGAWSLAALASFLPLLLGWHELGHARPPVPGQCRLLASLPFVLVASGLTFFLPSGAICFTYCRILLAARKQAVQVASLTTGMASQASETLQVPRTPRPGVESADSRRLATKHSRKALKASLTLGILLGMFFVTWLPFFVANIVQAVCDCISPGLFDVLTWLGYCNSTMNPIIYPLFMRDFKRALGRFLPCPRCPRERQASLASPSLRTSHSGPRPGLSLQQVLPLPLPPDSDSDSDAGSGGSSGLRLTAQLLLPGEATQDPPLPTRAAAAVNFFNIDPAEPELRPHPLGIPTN
row,Ki,SMILES
1,0.01 to 10 nM,"Cc1ccc(S(=O)(=O)c2n[nH]c3ccc(OC4CCNCC4)cc23)c2ccccc12 [Example 18, 3-[(4-methyl-1-naphthyl)sulfonyl]-5-(piperidin-4-yloxy)-1H-indazole]"
2,0.01 to 10 nM,"CCCN1CCC(Oc2ccc3[nH]nc(S(=O)(=O)c4cccc5ccccc45)c3c2)CC1 [Example 19, 3-(1-Naphthylsulfonyl)-5-(1-propylpiperidin-4-yloxy)-1H-indazole Hydrochloride]"
3,0.01 to 10 nM,"CCCCN1CCC(Oc2ccc3[nH]nc(S(=O)(=O)c4cccc5ccccc45)c3c2)CC1 [Example 20, 5-(1-Butylpiperidin-4-yloxy)-3-(1-naphthylsulfonyl)-1H-indazole Hydrochloride]"
4,0.01 to 10 nM,"CN1CCC(Oc2ccc3[nH]nc(S(=O)(=O)c4cccc5ccccc45)c3c2)CC1 [Example 21, 5-(1-Methylpiperidin-4-yloxy)-3-(1-naphthylsulfonyl)-1H-indazole Hydrochloride]"
5,0.01 to 10 nM,"CC(C)N1CCC(Oc2ccc3[nH]nc(S(=O)(=O)c4cccc5ccccc45)c3c2)CC1 [Example 22, 5-(1-Isopropylpiperidin-4-yloxy)-3-(1-naphthylsulfonyl)-1H-indazole Hydrochloride]"
6,11 to 25 nM,"O=S(=O)(c1cccc2ccccc12)c1n[nH]c2ccc(OC3CCN(CCc4ccccc4)CC3)cc12 [Example 23, 3-(1-Naphthylsulfonyl)-5-{[1-(2-phenylethyl)piperidin-4-yl]oxy}-1H-indazole Hydrochloride]"
7,0.01 to 10 nM,"CCN1CCC(Oc2ccc3[nH]nc(S(=O)(=O)c4cccc5ccccc45)c3c2)CC1 [Example 24, 5-[1-(Ethylpiperidin-4-yl)oxy]-3-(1-naphthylsulfonyl)-1H-indazole Hydrochloride]"
8,0.01 to 10 nM,"CCN1CCC(Oc2ccc3[nH]nc(S(=O)(=O)c4cccc5ccccc45)c3c2)C1 (stereo not shown) [Example 25, 5-[1-(Ethylpyrrolidin-3-yl)oxy]-3-(1-napthylsulfonyl)-1H-indazole Hydrochloride]"
9,11 to 25 nM,"O=S(=O)(c1cccc2ccccc12)c1n[nH]c2ccc(OC3CCN(CCc4ccccc4)C3)cc12 (stereo not shown) [Example 26, 3-(1-Naphthylsulfonyl)-5-{[1-(2-phenylethyl)pyrrolidin-3-yl]oxy}-1H-indazole Hydrochloride]"
10,0.01 to 10 nM,"O=S(=O)(c1cccc2ccccc12)c1n[nH]c2ccc(NC3CCNCC3)cc12 [Example 30, [3-(1-Naphthylsulfonyl)-1H-indazol-5-yl]-piperidin-4-ylamine Dihydrochloride]"
11,0.01 to 10 nM,"O=S(=O)(c1cccc2ccccc12)c1n[nH]c2ccc(NCC3CCNCC3)cc12 [Example 31, 3-(1-Naphthylsulfonyl)-N-(piperidin-4-ylmethyl)-1H-indazol-5-amine Dihydrochloride]"
12,0.01 to 10 nM,"O=S(=O)(c1cccc2ccccc12)c1n[nH]c2ccc(NC3CCCNC3)cc12 (stereo not shown) [Example 32, 3-(1-Naphthylsulfonyl)-N-piperidin-3-yl-1H-indazol-5-amine Dihydrochloride]"
13,> 45 nM,"O=S(=O)(c1cccc2ccccc12)c1n[nH]c2cc(NC3CCNCC3)ccc12 [Example 33, 3-(1-Naphthylsulfonyl)-N-piperidin-4-yl-1H-indazol-6-amine Dihydrochloride]"
14,> 45 nM,"O=S(=O)(c1cccc2ccccc12)c1n[nH]c2cc(NC3CCCNC3)ccc12 (stereo not shown) [Example 34, 3-(1-Naphthylsulfonyl)-N-piperidin-3-yl-1H-indazol-6-amine Dihydrochloride]"

# Further lines, the compound ahead of its results:
row,SMILES,Ki
1,"O=S(=O)(c1cccc2ccccc12)c1n[nH]c2ccc(OC3CCNC3)cc12 (stereo not shown) [Example 1, 3-(Naphthalene-1-sulfonyl)-5-(pyrrolidin-3-yloxy)-1H-indazole]",0.01 to 10 nM
2,"CCCCN1CCC(Oc2ccc3[nH]nc(S(=O)(=O)c4cccc5ccccc45)c3c2)C1 (stereo not shown) [Example 2, 5-(1-Butylpyrrolidin-3-yloxy)-3-(1-naphthylsulfonyl)-1H-indazole Hydrochloride]",0.01 to 10 nM
3,"CCCN1CCC(Oc2ccc3[nH]nc(S(=O)(=O)c4cccc5ccccc45)c3c2)C1 (stereo not shown) [Example 3, 3-(Naphthalene-1-sulfonyl)-5-(1-propyl-pyrrolidin-3-yloxy)-1H-indazole Hydrochloride]",0.01 to 10 nM
4,"CC(C)N1CCC(Oc2ccc3[nH]nc(S(=O)(=O)c4cccc5ccccc45)c3c2)C1 (stereo not shown) [Example 4, 5-(1-Isopropyl-pyrrolidin-3-yloxy)-3-(naphthalene-1-sulfonyl)-1H-indazole Hydrochloride]",0.01 to 10 nM
5,"CN1CCC(Oc2ccc3[nH]nc(S(=O)(=O)c4cccc5ccccc45)c3c2)C1 (stereo not shown) [Example 5, 5-(1-Methyl-pyrrolidin-3-yloxy)-3-(naphthalene-1-sulfonyl)-1H-indazole Hydrochloride]",0.01 to 10 nM
6,"O=S(=O)(c1cccc2ccccc12)c1n[nH]c2ccc(OC3CCNCC3)cc12 [Example 6, 3-(1-Naphthylsulfonyl)-5-(piperidin-4-yloxy)-1H-indazole Hydrochloride]",0.01 to 10 nM
7,"O=S(=O)(c1ccccc1)c1n[nH]c2ccc(OC3CCNCC3)cc12 [Example 7, 3-(phenylsulfonyl)-5-(piperidin-4-yloxy)-1H-indazole]",11 to 25 nM
8,"O=S(=O)(c1cccc(F)c1)c1n[nH]c2ccc(OC3CCNCC3)cc12 [Example 8, 3-[(3-fluorophenyl)sulfonyl]-5-(piperidin-4-yloxy)-1H-indazole]",11 to 25 nM
9,"O=S(=O)(c1ccccc1Cl)c1n[nH]c2ccc(OC3CCNCC3)cc12 [Example 9, 3-[(2-chlorophenyl)sulfonyl]-5-(piperidin-4-yloxy)-1H-indazole]",> 45 nM
10,"O=S(=O)(c1cccc(Cl)c1)c1n[nH]c2ccc(OC3CCNCC3)cc12 [Example 10, 3-[(3-chlorophenyl)sulfonyl]-5-(piperidin-4-yloxy)-1H-indazole]",0.01 to 10 nM
11,"O=S(=O)(c1ccc(Cl)cc1)c1n[nH]c2ccc(OC3CCNCC3)cc12 [Example 11, 3-[(4-chlorophenyl)sulfonyl]-5-(piperidin-4-yloxy)-1H-indazole]",11 to 25 nM
12,"Cc1cccc(S(=O)(=O)c2n[nH]c3ccc(OC4CCNCC4)cc23)c1 [Example 12, 3-[(3-methylphenyl)sulfonyl]-5-(piperidin-4-yloxy)-1H-indazole]",0.01 to 10 nM
13,"COc1cccc(S(=O)(=O)c2n[nH]c3ccc(OC4CCNCC4)cc23)c1 [Example 13, 3-[(3-methoxyphenyl)sulfonyl]-5-(piperidin-4-yloxy)-1H-indazole]",0.01 to 10 nM
14,"COc1ccc(S(=O)(=O)c2n[nH]c3ccc(OC4CCNCC4)cc23)cc1 [Example 14, 3-[(4-methoxyphenyl)sulfonyl]-5-(piperidin-4-yloxy)-1H-indazole]",> 45 nM
15,"O=S(=O)(c1cccc(C(F)(F)F)c1)c1n[nH]c2ccc(OC3CCNCC3)cc12 [Example 15, 5-(piperidin-4-yloxy)-3-{[3-(trifluoromethyl)phenyl]sulfonyl}-1H-indazole]",0.01 to 10 nM
16,"O=S(=O)(c1ccc(C(F)(F)F)cc1)c1n[nH]c2ccc(OC3CCNCC3)cc12 [Example 16, 5-(piperidin-4-yloxy)-3-{[4-(trifluoromethyl)phenyl]sulfonyl}-1H-indazole]",11 to 25 nM
17,"CC(C)c1ccc(S(=O)(=O)c2n[nH]c3ccc(OC4CCNCC4)cc23)cc1 [Example 17, 3-[(4-isopropylphenyl)sulfonyl]-5-(piperidin-4-yloxy)-1H-indazole]",11 to 25 nM
